In article PMC9795070, “Customized chitooligosaccharide production—controlling their length via engineering of rhizobial chitin synthases and the choice of expression system” (Frontiers in Bioengineering and Biotechnology, 2022):

Target: T1, NodC_GRH2 (Rhizobium sp. GRH2, UniProt A0A0N7ARR3)
T1 construct: gene nodC; wild-type nodC in shuttle vector pEKEx3, expressed in E. coli BL21 (DE3) and C. glutamicum DSM20300; not purified, membrane-embedded
T1 sequence (A0A0N7ARR3 1-443): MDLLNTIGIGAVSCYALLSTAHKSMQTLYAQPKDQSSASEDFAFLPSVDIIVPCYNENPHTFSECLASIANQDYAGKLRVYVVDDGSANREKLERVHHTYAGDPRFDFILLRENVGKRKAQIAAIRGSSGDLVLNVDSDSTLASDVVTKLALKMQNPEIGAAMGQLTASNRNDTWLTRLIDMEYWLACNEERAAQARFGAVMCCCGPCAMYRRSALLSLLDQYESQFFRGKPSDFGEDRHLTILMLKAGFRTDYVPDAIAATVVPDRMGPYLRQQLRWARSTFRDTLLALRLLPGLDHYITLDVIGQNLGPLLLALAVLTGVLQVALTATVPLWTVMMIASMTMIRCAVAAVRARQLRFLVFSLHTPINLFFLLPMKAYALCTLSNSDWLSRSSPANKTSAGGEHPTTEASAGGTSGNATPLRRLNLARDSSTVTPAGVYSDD
Assay: whole-cell production, HILIC-ESI-MS of lysed culture
Type: cell-based
Conditions: 0.1 mM IPTG, donor UDP-GlcNAc from the host

Row | SMILES | whole-cell production, HILIC-ESI-MS of lysed culture (C. glutamicum DSM20300, 30 °C) | whole-cell production, HILIC-ESI-MS of lysed culture (E. coli BL21 (DE3), 30 °C)
1 | CC(=O)N[C@H]1[C@H](O[C@H]2[C@H](O)[C@@H](NC(C)=O)[C@H](O[C@H]3[C@H](O)[C@@H](NC(C)=O)C(O)O[C@@H]3CO)O[C@@H]2CO)O[C@H](CO)[C@@H](O[C@@H]2O[C@H](CO)[C@@H](O[C@@H]3O[C@H](CO)[C@@H](O[C@@H]4O[C@H](CO)[C@@H](O)[C@H](O)[C@H]4NC(C)=O)[C@H](O)[C@H]3NC(C)=O)[C@H](O)[C@H]2NC(C)=O)[C@@H]1O (some centres unmarked) [A6, hexamer] | C. glutamicum expressing the same wildtype enzyme produces predominantly A6 | 
2 | CC(=O)N[C@H]1[C@H](O[C@H]2[C@H](O)[C@@H](NC(C)=O)[C@H](O[C@H]3[C@H](O)[C@@H](NC(C)=O)C(O)O[C@@H]3CO)O[C@@H]2CO)O[C@H](CO)[C@@H](O[C@@H]2O[C@H](CO)[C@@H](O[C@@H]3O[C@H](CO)[C@@H](O)[C@H](O)[C@H]3NC(C)=O)[C@H](O)[C@H]2NC(C)=O)[C@@H]1O (some centres unmarked) [A5, pentamer] |  | the main product for wildtype NodC_GRH2 throughout the whole cultivation is A5
